In US20230045902A1, “COMPOSITION FOR REINFORCING FUNCTION OF STEM CELL” (SCM LIFE SCIENCE CO., LTD., priority 2020, published 2023):

How the values were obtained:
Assay type in all cases: cell-based
[1] = system: indoleamine 2,3-dioxygenase (IDO); assay: IDO expression change in mesenchymal stem cells by qRT-PCR; conditions: MSC treated 24 hours, Table 1 concentrations; FIG. 6
Experimental: At 37° C. and 5% CO2 incubator, mesenchymal stem cells in storage state (stored in LN2 tank) were thawed and cultured. At this time, they were cultured in a medium (DMEM, alpha-MEM) containing 10% FBS or 4% hPL. Cells were cultured until confluence reached about 80%. After seeding the cultured mesenchymal stem cells in a 100 mm dish, a candidate material for enhancing the mesenchymal stem cell function was selected.
The selected 20 ng/ml of IL-1β and vitamin B6 and IFN-α at different concentrations were combined, and the effect was confirmed by the change in indoleamine 2,3-dioxygenase (IDO) expression. IDO is known as an immunomodulatory factor that suppresses the proliferation of immune cells such as T cells by changing tryptophan, which is essential for T cell proliferation, into kynurenine. After culturing stem cells, total RNA was isolated using TRIzol (Invitrogen), and cDNA was synthesized from total RNA using PrimeScript™ reagent Kit with gDNA Eraser (TaKaRa), followed by qRT-PCR.
The selected candidate substances and their concentration combinations are shown in Table 1, and they were treated to mesenchymal stem cells for 24 hours, and the function-enhancing effect was confirmed. […]

[2] = system: IFN-γ; assay: IFN-γ secretion in PHA-activated T-cells co-cultured with treated mesenchymal stem cells (IFN-γ kit); conditions: MSC treated 24 hours (Table 1 concentrations), co-cultured 3 days with PHA-activated T-cells; FIG. 3
Text: As a control group, mesenchymal stem cells that were not treated with the test substance were used.

[3] = system: Inducible costimulatory ligand (ICOSL); assay: ICOSL expression change in mesenchymal stem cells by qRT-PCR; conditions: MSC treated 24 hours, Table 1 concentrations; FIG. 4
Experimental: Inducible costimulatory ligand (ICOSL) is known to inhibit activated T cells by inducing regulatory T cells. Since the function-enhancing effect of the mesenchymal stem cells according to the treatment with the experimental group was confirmed in Example 1.1, an experiment was performed to additionally confirm whether the treatment with the experimental group induces inflammation and immune regulation ability of the mesenchymal stem cells. After culturing stem cells as in Experimental Example 1, total RNA was isolated using TRIzol (Invitrogen), and then cDNA was synthesized from total RNA using PrimeScript™ reagent Kit with gDNA Eraser (TaKaRa) and qRT-PCR was performed. Through this, the expression change of ICOSL, which is a representative factor of inflammation and immune regulation, was confirmed, and the results are shown in FIG. 4.

[4] = system: Galectin 1; assay: Galectin 1 expression change in mesenchymal stem cells by qRT-PCR; conditions: MSC treated 24 hours, Table 1 concentrations; FIG. 5
Text: 1.3. Confirmation of Change in Galectin 1 Expression According to the Treatment with the Experimental Group Galectin 1 is known as a stem cell potency marker closely related to the high efficacy of stem cells, and it is known that the more the expression increases, the stronger the stem cell function and efficacy. Therefore, in order to further confirm whether the treatment with the experimental group induces the inflammation and immune regulation ability of the mesenchymal stem cells, an experiment was performed to confirm the expression of Galectin 1. After culturing stem cells as in Experimental Example 1, total RNA was isolated using TRIzol (Invitrogen), and then cDNA was synthesized from total RNA using PrimeScript™ reagent Kit with gDNA Eraser (TaKaRa) and qRT-PCR was performed. Using this, a change in the expression of Galectin 1, an indicator of stem cell efficacy, was confirmed, and the result is shown in FIG. 5.

[5] = system: TSG6 and IDO; assay: Concentration setting of IL-1β in MSC by expression of TSG6 and IDO; conditions: treated in MSC
Experimental: IL-1β, IFN-α and vitamin B6 were selected as candidate substances, and concentrations for function-enhancing were set. When IL-1β was treated in MSC, it was confirmed that the lowest effective concentration capable of increasing the expression of TSG6 and IDO was 20 ng/ml, and this was set as the standard.

Compound | IDO expression change [1] | change in IFN-γ secretion compared to the untreated control group [2] | expression of ICOSL [3] | expression of Galectin 1 [4] | lowest effective concentration capable of increasing the expression of TSG6 and IDO [5]
Cc1ncc(CO)c(CO)c1O.Cl [vitamin B6] | did not show a distinct expression change | not significant | did not show a distinct increase | did not show a distinct increase | 
Interleukin 1 beta (IL-1β) | did not show a distinct expression change | not significant | increased | increased | 20 ng/mL
interferon alpha (IFN-α) |  | not significant | did not show a distinct increase |  | 
